The text below walks through data of patent US4866046A, “Low-dosage sublingual aspirin” (Top Laboratories, Inc., priority 1988, dated 1989).

SMILES strings stand for the structures.

One assay deals with Cyclooxygenase. The experiment in a line: Cyclooxygenase inhibition in volunteers after daily aspirin tablets. It counts as in vivo, human.
Assay [1] deals with Platelet Aggregation. The experiment in a line: Platelet aggregation inhibition in volunteers, thrombin as aggregating agent. It counts as in vivo, human. The following applies: daily dose, average (range). The method, then:
Platelet aggregation was measured against thrombin as aggregating agent. Tablets were all similarly made as described in Example 1.

Assay [2] deals with Platelet Aggregation. The following applies: dose of 325 mg/day, in some people; cited from earlier work.

The term inhibition denotes the relative decrease from the control value, in per cent. As to `CC(=O)Oc1ccccc1C(=O)O` [Aspirin, acetylsalicylic acid], the “% Inhibition, after 5-7 days, of Cyclooxygenase” value with Cyclooxygenase (10 mg. tablet, swallowed, average (range) of volunteers) is reported as 55.6 (11-95) %; with Cyclooxygenase (20 mg. sublingual tablet, average (range)), 83.3 (75-94) %; in the assay on Cyclooxygenase (80 mg. sublingual tablet (tablet of Example 1), average (range)), 99.0 (95-100) %; with Cyclooxygenase (80 mg. tablet, swallowed, average (range)), 76.3 (13-100) %; in the assay on Cyclooxygenase (325 mg tablet, swallowed, average (range)) it was 97.7 (25-100) %; in the assay on Cyclooxygenase (325 mg. sublingual tablet, average) it was 100.0%. Besides, the “% Inhibition, after 5-7 days, of Platelet Aggregation” value with Platelet Aggregation [1] (10 mg. tablet, swallowed) is 27.5 (0-87) %; in the assay on Platelet Aggregation [1] (20 mg. sublingual tablet) it was 45.3 (35-60) %; in the assay with Platelet Aggregation [1] (80 mg. sublingual tablet (tablet of Example 1)) it was 95.7 (88-100) %; with Platelet Aggregation [1] (80 mg. tablet, swallowed), 44.2 (5-98) %; in the assay with Platelet Aggregation [1] (325 mg. sublingual tablet) it was 78.5 (62-98) %. For the same molecule, the inhibition at 325 mg in the assay on Platelet Aggregation [1] (Homo sapiens, Platelet, 325 mg tablet, swallowed, read-out: % Inhibition, after 5-7 days, of Platelet Aggregation) came to 70%. Besides, in the assay on Platelet Aggregation [2], the inhibit platelet aggregation is listed as 90%.
